# Reference: patent US20220362381A1, “REMOTELY TRIGGERED THERAPY” (Bambu Vault LLC, priority 2019, published 2022)
# Experiment: Leaching testing of curcumin/Epolight IR 1117 B-805 particles with and without VTMS shell (FIG. 13)
# Type: physicochemical
# Settings: B-805 particles with VTMS shell vs. without shell
row,Structure (SMILES),reduction of leaching by the VTMS shell [%]
1,"COc1cc(/C=C/C(=O)CC(=O)/C=C/c2ccc(O)c(OC)c2)ccc1O [Curcumin, curcumin]",70

# Experiment: Stabilization effect of surfactant on tetrakis aminium dye during emulsification (Epolight 1117 retention)
# Type: physicochemical
# Settings: retention in particles after emulsification; surfactant in aqueous phase as in label
# Method: IR absorbing agent weight ratio=4.4:1). The organic phase (polymer and IR absorbing agents dissolved in dichloromethane) was injected directly into the aqueous phase (PVA solution with SDS surfactant) at the tip of the Turrax's roto-stator (i.e. directly into the flow being sheared by the roto-stator). The shear mixing at 8000 RPM was continued for 30 minutes. The resulting mixture was decanted into an open-mouth container and stirred magnetically for 16 hours. A solid suspension of particles containing IR absorbing agent was obtained. The solid suspension was centrifuged at 5000 RPM for 30 minutes and the particles were collected. The collected particles were washed with distilled water by resuspending the particles into distilled water and centrifuging as before to collect the particles. This washing process was repeated three times to remove residual PVA. The resulting MMA/BMA copolymer particles containing IR absorbing agent were air-dried. In the emulsion method of encapsulation, a surfactant is necessary to help keep the emulsion stable. While Aerosol® TR-70 (sodium bis(tridecyl) sulfosuccinate) could be used as an emulsifier to prepare polymer particles encapsulating Epolight™ 1117 tetrakis aminium dye, TR-70 only provided limited stabilization effects on the tetrakis aminium dye. […]
row,Structure (SMILES),% Epolight ™ 1117 Retention
1,"CCCCCCCCCCCCOS(=O)(=O)[O-].[Na+] [Sodium dodecyl sulfate, sodium dodecyl sulfate]",85-90%
2,"CCCCCCCCCCCCCOC(=O)CC(C(=O)OCCCCCCCCCCCCC)S(=O)(=O)O.[Na] (stereo not shown) [TR-70, sodium bis(tridecyl) sulfosuccinate]",50%

# Experiment: not given
# Settings: likelihood of association with drug induced liver injury; cited from earlier work
row,Structure (SMILES),Likelihood Score
1,CCN1CCN(Cc2ccc(Nc3ncc(F)c(-c4cc(F)c5nc(C)n(C(C)C)c5c4)n3)nc2)CC1 [Abemaciclib],E*
2,CCS(=O)(=O)N1CC(CC#N)(n2cc(-c3ncnc4[nH]ccc34)cn2)C1 [Baricitinib],E*
3,Cn1cnc2c(F)c(Nc3ccc(Br)cc3F)c(C(=O)NOCCO)cc21 [Binimetinib],E*
4,COc1cc(Nc2c(C#N)cnc3cc(OCCCN4CCN(C)CC4)c(OC)cc23)c(Cl)cc1Cl [Bosutinib],E*
5,COc1cc(N2CCC(N3CCN(C)CC3)CC2)ccc1Nc1ncc(Cl)c(Nc2ccccc2P(C)(C)=O)n1 [Brigatinib],E*
6,COc1cc2nccc(Oc3ccc(NC(=O)C4(C(=O)Nc5ccc(F)cc5)CC4)cc3)c2cc1OC [Cabozantinib],E*
7,COc1c(OCCCN2CCOCC2)ccc2c1N=C(NC(=O)c1cnc(N)nc1)N1CCN=C21 [Copanlisib],E*
8,CC(C)(C)c1nc(-c2cccc(NS(=O)(=O)c3c(F)cccc3F)c2F)c(-c2ccnc(N)n2)s1 [Dabrafenib],E*
9,COc1cc2ncnc(Nc3ccc(F)c(Cl)c3)c2cc1NC(=O)/C=C/CN1CCCCC1 [Dacomitinib],E*
10,C[C@H](Nc1ncnc2[nH]cnc12)c1cc2cccc(Cl)c2c(=O)n1-c1ccccc1 [Duvelisib],E*
11,CC(C)(O)CNc1nc(Nc2ccnc(C(F)(F)F)c2)nc(-c2cccc(C(F)(F)F)n2)n1 [Enasidenib],E*
12,COC(=O)N[C@@H](C)CNc1nccc(-c2cn(C(C)C)nc2-c2cc(Cl)cc(NS(C)(=O)=O)c2F)n1 [Encorafenib],E*
13,COc1cc(Nc2ncc(F)c(Nc3ccc4c(n3)N(COP(=O)(O)O)C(=O)C(C)(C)O4)n2)cc(OC)c1OC [Fostamatinib],E*
14,CCc1nc(C(N)=O)c(Nc2ccc(N3CCC(N4CCN(C)CC4)CC3)c(OC)c2)nc1NC1CCOCC1 [Gilteritinib],E*
15,CN1CC[C@@H](NC(=O)Nc2ccc(C#N)cc2)C[C@@H]1c1nc2ccccc2[nH]1 [Glasdegib],E*
16,N#Cc1ccnc(N2C(=O)CC[C@H]2C(=O)N(c2cncc(F)c2)[C@H](C(=O)NC2CC(F)(F)C2)c2ccccc2Cl)c1 [Ivosidenib],E*

row,Structure (SMILES),Likelihood Score
1,CC(C)C[C@H](NC(=O)CNC(=O)c1cc(Cl)ccc1Cl)B(O)O [Ixazomib],E*
2,O=C(Nc1cnn2ccc(N3CCC[C@@H]3c3cc(F)ccc3F)nc12)N1CC[C@H](O)C1 [Larotrectinib],E*
3,C[C@H]1Oc2cc(cnc2N)-c2c(nn(C)c2C#N)CN(C)C(=O)c2ccc(F)cc21 [Lorlatinib],E*
4,CO[C@@H]1[C@H](N(C)C(=O)c2ccccc2)C[C@H]2O[C@]1(C)n1c3ccccc3c3c4c(c5c6ccccc6n2c5c31)C(=O)NC4 [Midostaurin],E*
5,CCOc1cc2ncc(C#N)c(Nc3ccc(OCc4ccccn4)c(Cl)c3)c2cc1NC(=O)/C=C/CN(C)C [Neratinib],E*
6,COC(=O)c1ccc2c(c1)NC(=O)/C2=C(\Nc1ccc(N(C)C(=O)CN2CCN(C)CC2)cc1)c1ccccc1 [Nintedanib],E*
7,NC(=O)c1cccc2cn(-c3ccc([C@@H]4CCCNC4)cc3)nc12 [Niraparib],E*
8,CC(=O)c1c(C)c2cnc(Nc3ccc(N4CCNCC4)cn3)nc2n(C2CCCC2)c1=O [Palbociclib],E*
9,Cc1ccc(C(=O)Nc2ccc(CN3CCN(C)CC3)c(C(F)(F)F)c2)cc1C#Cc1cnc2cccnn12 [Ponatinib],E*
10,CNCc1ccc(-c2[nH]c3cc(F)cc4c3c2CCNC4=O)cc1 [Rucaparib],D*
11,N#CC[C@H](C1CCCC1)n1cc(-c2ncnc3[nH]ccc23)cn1 [Ruxolitinib],E*
12,Cc1c(C(=O)Nc2ccc(N3C[C@@H](C)O[C@@H](C)C3)nc2)cccc1-c1ccc(OC(F)(F)F)cc1 [Sonidegib],E*
13,Cn1ncnc1[C@H]1c2n[nH]c(=O)c3cc(F)cc(c23)N[C@@H]1c1ccc(F)cc1 [Talazoparib],E*
14,COc1cc2c(Nc3ccc(Br)cc3F)ncnc2cc1OCC1CCN(C)CC1 [Vandetanib],E*
15,CCCS(=O)(=O)Nc1ccc(F)c(C(=O)c2c[nH]c3ncc(-c4ccc(Cl)cc4)cc23)c1F [Vemurafenib],E*
